{
  "source": "patent US10066025B2",
  "about": "“Compositions and methods for detecting, treating and preventing diseases and disorders” (YALE UNIVERSITY, priority 2012, dated 2018)",
  "key": {"HK-2 cells": {"system": "HK-2 cells", "assay": "HK-2 cell cisplatin toxicity (WST-1 viability, western blot)", "type": "cell-based, human", "settings": "20 μM cisplatin, 24 hrs", "description": "Cultured HK-2 cells were incubated with 20 μM cisplatin for 24 hours with and without recombinant renalase. Renalase expression was examined by Western blot and cell viability (mitochondrial integrity) was determined spectrophotometrically using WST-1, a tetrazolium salt that is cleaved, by mitochondrial dehydrogenases of metabolically active and viable cells, to formazan (420-480 nm) (Boehringer Mannheim, Germany).\nHK2 cells (human proximal tubular line) obtained from ATTC (Manassas, Va., USA) were cultured in DMEM/F12 supplemented with glutamine, 10% FBS and antibiotics, and were maintained at 37° C. in 5% CO2. Cells were exposed to cisplatin (20 μM) in the presence or absence of renalase for 24 hrs, and cell viability was assessed by the WST1 method (Roche Applied Science, Germany). Cells were then harvested in RIPA buffer (20 mM Tris-HCl pH 7.5, 150 mM NaCl, 1 mM Na2EDTA, 1 mM EGTA, 1% NP-40, 1% sodium deoxycholate, 2.5 mM sodium pyrophosphate, 1 mM β-glycerophosphate, 1 mM Na3VO4, 1 μg/ml leupeptin) supplemented with a protease and phosphatase inhibitor cocktail (Roche Applied Science, Germany). Proteins were separated by SDS-PAGE and Western blotting was carried out using the following antibodies: anti-renalase monoclonal (Desir et al., 2012, J Am Heart Assoc. 1:e002634; (Lee et al., 2013, J Am Soc Nephrol 24:445-455); anti caspase 3 (Cell Signaling Technology, MA, USA) and anti Bcl2 (Thermo Scientific, USA). Necrotic injury in HK-2 cells (ATCC, Manassas, Va.) was induced with exposure to 2 mM H2O2 for 2-8 hr and lactate dehydrogenase (LDH) released into cell culture media was measured as described using a commercial LDH assay kit (Promega, Madison, Wis.) (Lee and Emala, 2002, American journal of physiology. Renal physiology 282:F844-852)."}, "[1]": {"assay": "NADH / amine oxidase activity of renalase peptides", "type": "biochemical", "settings": "25 mM Tris, pH 7.5, 5 mM NaCl, 150 μM NADH, 37° C.", "description": "Renalase isoforms Ren1-7; exons numbered from 1 to 10; RP-224: renalase peptide amino acid 224-233 of Ren1 or Ren2; RP-220; amino acids 220-239; RP-H220: histidine tagged RP-220; RP-Scr220: scrambled RP-220 (FIG. 19A). CCL-119 cells in culture treated with anti-renalase monoclonal antibody for 24 hrs; cell survival measured by the WST-1 method; n=3, *: P<0.05 (FIG. 19B). HK-2 cell treated with 2 mM H2O2 with and without renalase peptides for indicated time; LDH: lactate dehydrogenase; n=6, *: P<0.05 for Control vs. renalase peptide (FIG. 19C). HK-2 cells treated with 20 μM cisplatin with and without recombinant renalase and renalase peptides for 24 hrs, *: P<0.05, control vs. renalase peptide (FIG. 19D). Plasma creatinine levels from mice subjected to sham-surgery or to renal ischemia and reperfusion (IR); Renalase WT mice were subjected to sham-surgery or to 30 min renal IR. For mice subjected to renal IR, RP-H220 or vehicle (saline) was injected 10 min prior to renal ischemia.\nHuman recombinant renalase was synthesized as described (Desir et al., 2012, J Am Heart Assoc. 1:e002634). […] Renalase enzymatic activity was measured as previously described (Desir et al., 2012, J Am Heart Assoc. 1:e002634). Renalase expression was detected using an anti-renalase monoclonal antibody generated against the renalase peptide RP-220 (amino acid"}, "cisplatin-mediated AKI": {"system": "cisplatin-mediated AKI", "assay": "Murine model of cisplatin AKI", "type": "in vivo, mice", "settings": "cisplatin + peptide; Sham 0.05±0.002, cisplatin 0.177±0.02; n=3", "description": "The efficacy of recombinant renalase in treating cisplatin-induced AKI was investigated, and the mechanisms that mediate its protective action were assessed. Cisplatin (20 mg/kg) was administered by intra-peritoneal injection to either WT or renalase KO mice. The mice were sacrificed 3 days later. Blood was collected for BUN and creatinine measurements, and kidneys harvested for histologic examination, immunofluorescence (IF), and western blotting (WB). One renal pathologist, masked to the identity of the study animal, reviewed each kidney specimen. Pathologic features were scored using an ordinal rating scale (0-4; 0=none; 1=<25%, 2=26-50%; 3=51-75%; 4=76-100%) for the presence of tubular necrosis. Morphometry of renal cortex and medulla was performed using point counting technique. Points falling on injured tubules, were counted and the percentage of lesion area was calculated as percentage of total points counted\nCisplatin (15-20 mg/kg) was administered by intraperitoneal injection (IP) to either WT or renalase KO mice under brief isoflurane anesthesia. The animals were sacrificed 3 days later. […] Pathologic features were scored using an ordinal rating scale (0-4; 0=none; 1=<25%, 2=26-50%; 3=51-75%; 4=76-100%) for the presence of tubular necrosis. […] Points falling on injured tubules were counted, and the percentage of lesion area was calculated as percentage of total points counted. […]"}},
  "note": "Entries after “also recorded” stand apart in the source; their conditions may differ.",
  "data": [
    {"substance": "RP H220: histidine tagged RP-220, SEQ ID NO: 4, HHHHHHCIRFVSIDNKKRNIESSEIG (listed as Homo sapiens)", "values": [
      {"measurement": "cell survival / protection against cisplatin toxicity", "setting": "HK-2 cells", "result": "improved HK-2 cell survival"},
      {"measurement": "NADH or amine oxidase activity", "setting": "[1]", "result": "no detectable NADH or amine oxidase activity; also recorded: neither detectable oxidase activity"},
      {"measurement": "creatinine measured by HPLC", "setting": "cisplatin-mediated AKI", "result": "0.085±0.007"}
    ]}
  ]
}
